Each structure is given as a SMILES string. “Also recorded” adds a separate entry of the source.

A short description of one assay: Glucose tolerance test. The class given is in vivo, mice. Conditions: for response to glucose challenge / glucose intolerance: WT mice exposed to stress and high-fat diet, FIG. 18A. How it is done: Glucose tolerance test: After an overnight 17 h fast, unanesthetized mice are injected i.p. with a dose of 1.5 g of 50% glucose solution per kg of body weight. Blood samples are obtained from the tail vein 30 min prior to the glucose challenge and then again at 0, 30, 60, 90 min after the glucose challenge. Blood glucose concentrations are measured with an Elite XL (Bayer) portable glucose meter.
1. Cell culture: 3T3-L1 preadipocyte cells, (gift from Dr. Lane,^34) were cultured in DMEM high glucose media with glutamine, 10% calf sera (Gemini Bioproducts), d-Biotin (8 μg/ml) and Pantothenate (8 μg/ml) (Sigma). SK-N-BE(2) neuroblastoma cells (ATCC) were cultured in EMEM/F12K with 10% fetal bovine sera (FBS). HMVEC endothelial cells (Cambrex) were cultured in endothelial cell growth media (Cambrex). All media was supplemented with 100 units/ml penicillin, 100 μg/ml streptomycin and […] amphotericin. 2. Proliferation assay: Cells were plated onto 96-well dishes, growth-arrested in serum-free media for 24 h, and then were treated with the desired factors for 24 h in the culture media supplemented with 0.25% FBS; 4 hr after treatment 0.5 μCi [^3H] thymidine was added to each well. After 24 h, cells were harvested in a 96-well harvester (Tomtec) and counted in a Betaplate Liquid Scintillation Counter (Wallac). 3. Co-culture: For mitogenic assay and expression studies, co-culture was performed in a Costar Transwell system. Cells were plated on 6-well plates or inserts with 0.4 μm Polyester membranes. At 30% confluence, the inserts were combined with wells containing other cells. […] After 48 hr, the cells were counted with a Beckman Coulter Counter. […] The results were analyzed using software provided by BioRad and expression levels calculated by the comparative CT method using β-actin as an endogenous reference gene, according to the Applied Biosystems' ABI PRISM 7700 User Bulletin #2. […] The density of TUNEL positive cells will be measured using NIH ImageJ software (using a plugin written by Wayne Rasband). […]

The next assay concerns abdominal fat. The assay is described as follows: Stress and high-fat diet induced obesity model. The class given is in vivo, mice. On the procedure: In environmentally-induced obese mice, normal NWT C57BL/6 and SV129 mice are subjected to low levels of chronic stress (cold stress, 1 cm ice-water bath at the base of the cage for 1 hour, a technique that increases NPY and stimulates vascular growth) and fed a high-fat, “comfort food” diet consisting of lard and sucrose (standard chow diet/high fat diet: fat: 12%/45%, carbohydrates: 60%/35%, and protein: 28%/20%). These mice are treated with NPY, Y2R agonists and Y2R antagonists. The growth of fat deposits is monitored by MRI and vascularization is confirmed by immunohistochemistry (IHC). ELISA, IHC, and quantitative real-time RT-PCR are used to determine how diet and stress affect NPY and Y2R levels. Core body temperature and food intake are monitored to determine changes in metabolism (FIG. 15). Glucose tolerance tests and lipid profiles of the mice are used to determine whether altering adipose mass results in a change in insulin, glucose, FFA, TG or cholesterol in the plasma (FIG. 18).
Magnetic Resonance Imaging (MRI): A Brukker 7-Tesla small-animal magnetic resonance imager coil is used to visualize and noninvasively quantitate various fat depots. A 3-dimensional (3D) T2-weighted (T2W) imaging protocol optimized for high contrast fat-imaging is implemented. […] Quantification of the total body fat as well as separate specific fat depots is calculated using thresholding and voxel count plugins from NIH image J software. VolumeJ is used to render, in a 3D image, the various fat depots. The animal management system that is used in conjunction with the MRI is equipped to take core, skin, ambient and water blanket temperature measurements that are monitored during the imaging. The water blanket is used to regulate core temperature of the rodent during anesthesia. […]
High fat diet: Mice are given either a Standard Chow (SC) diet: 28% protein, 60% carbohydrate, 12% fat (4 kcal/gm) or a High Fat (HF) diet: 20% protein, 35% carbohydrate, 45% fat (4.7 kcal/gm) from Research Diets for 14-28 days. Food consumption is measured daily from the various treatment groups and pairfeeding ensures that changes seen in weight and visceral fat are due to the peripheral effects of the treatment. […]

[1] abbreviates: intra-fat injection, HF and stress.
[2] abbreviates: local Y2R antagonist, stress and HF-diet.
Where [3] appears, read: local intra-fat injections, within 2-weeks, HF + stress.

As to `N=C(N)NCCC[C@H](NC(=O)CC1(CC(=O)N2CCN(C3c4ccccc4NC(=O)c4ccccc43)CC2)CCCC1)C(=O)NCCn1c(=O)n(-c2ccccc2)n(-c2ccccc2)c1=O` (some centres unmarked) [BIIE0246], the “response to glucose challenge / glucose intolerance” value in “Glucose tolerance test” (listed as Y2R antagonist) is on record as “resolved”. Also, the “response to glucose challenge / glucose intolerance” value in “Glucose tolerance test” (listed as Y2 antagonist) is on record as “normalized glucose intolerance”. Moreover, in the assay “Glucose tolerance test” (ob/ob mice, FIG. 18B, listed as Y2R antagonist), the “response to glucose challenge” value was “near normal response to the challenge; also recorded: resolved”. In the assay with abdominal fat (four weeks daily 1-hr cold stress + high fat diet), the “stress-amplification of visceral fat (MRI fat volume fraction)” value is “reversed”. The “stress-induced insulin-to-NPY switch and metabolic abnormalities” value in the assay on abdominal fat (intra-fat administration) was “fully prevented”. In the assay with abdominal fat (setting [1]), the fat mass entry is reported as “reduced fat mass” and the “imbalance of NPY-to-epinephrine plasma levels” value was “reversed this imbalance”. The “stress+HF-induced hyperlipidemia” value with abdominal fat (intra-fat injections) was “did not alter”. In addition, in the assay on abdominal fat (intra-fat injections, stress+HF), the “UCP-1/2 expression in WAT” value is given as “did not alter”. For the same molecule, in the assay with abdominal fat (setting [2]), the “adipocyte apoptosis (TUNEL)” value is reported as “increased their apoptosis” and the “adipocyte proliferation (Ki67+ staining)” value is “inhibited adipocyte proliferation”. In the assay on abdominal fat (setting [3]), the insulin levels result is listed as “increased insulin levels”, the metabolic profile entry is “improved metabolic profile”, the “plasma NPY levels” value was “normalized” and the plasma adipokine levels entry is listed as “normalized”. In addition, the “tissue steatosis (liver and skeletal muscle)” value with abdominal fat (local intra-fat injections, HF + stress, listed as Y2R antagonist) is “inhibited tissue steatosis; also recorded: reduced liver and skeletal muscle steatosis”. Moreover, the visceral fat result in the assay on abdominal fat (nonstressed WT mice, FIG. 17) is “significant reduction in visceral fat”. In addition, the “lowered plasma osteocalcin levels (bone loss response)” value with abdominal fat (stress combined with HF, intra-fat delivery) was “completely normalized”. Moreover, the “stress-induced WAT cellularity, proliferation of small adipocytes” value in the assay on abdominal fat (stress in HF-fed mice) is recorded as “reversed”. The “visceral fat volume fraction” value in the assay with abdominal fat (stressed C57BL/6 WT mice, FIG. 17) is on record as “reversed”. Moreover, the other fat depots result in the assay with abdominal fat (stressed HF-fed mice, 2-weeks) was “without significantly changing other depots”. In the assay with abdominal fat (stressed HF-fed mice, pellet 10 μg/14 days or daily injections 1 μM, 2-weeks), the “reduction of abdominal (subcutaneous and visceral) depot” value was found to be 40%. For the same molecule, in the assay on abdominal fat (stressed SV129 mice on high-fat diet, Y2R antagonist slow-release pellets, FIG. 16), the “visceral fat volume fraction” value was “reduced to a level that is comparable to nonstressed SV129 mice given a placebo pellet”.

(Values after patent US20090317376A1, “Compositions And Methods For Lipo Modeling” (Georgetown University MEDICAL SCHOOL, priority 2005, published 2009).)
